From ChEMBL document CHEMBL1201862, “PubChem BioAssay data set” (2004) come the findings set out here.

SMILES strings stand for the structures.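 Results reflect a 48-hour exposure of cells in 96-well plates to compound at five concentrations. Abbreviation: GI50, concentration required for 50% inhibition of growth.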 The source made the active and inactive calls. Cut-off read from the data, not from the text of the source: active = GI50 up to about 1.1 µM and inactive = higher.

Some test systems named below: A549; BT-549; DU-145; EKVX; HCC 2998; HCT-116; HCT-15; HL-60; HT-29; NCI-H226; NCI/ADR-RES; OVCAR-5; OVCAR-8; PC-3; SK-OV-3; SW-620; CCRF-CEM; RPMI-8226; SF-295; NCI-H460.
Assay in all cases: inhibition of tumour cell growth, NCI panel, 48 h

For the molecule `Cc1nn(CN2CCN(C)CC2)c(=S)n1/N=C/c1ccc(-c2ccc(Cl)cc2Cl)o1`, the GI50 in the assay with A549 is > 100 µM (inactive); in the assay with BT-549, > 100 µM (inactive); in the assay with DU-145 it was > 100 µM (inactive); in the assay on EKVX, 14.8 µM (inactive); in the assay on HCC 2998, > 100 µM (inactive); with HCT-116 it was 74.6 µM (inactive). Moreover, the GI50 is 47.2 µM in the assay on HCT-15; 32.7 µM (inactive) in the assay with HL-60; 89.1 µM (inactive) in the assay on HT-29; 29.4 µM (inactive) with NCI-H226; 62.7 µM (inactive) in the assay with NCI/ADR-RES; > 100 µM (inactive) in the assay on OVCAR-5. The GI50 in the assay with OVCAR-8 is 51.3 µM (inactive); in the assay on PC-3 it was 68.7 µM (inactive); in the assay with SK-OV-3, > 100 µM (inactive); in the assay with SW-620, 42.7 µM (inactive).

As to `CC(C)(Br)C(Br)CCC(C)(Br)C(Br)CO` (stereo unspecified), the GI50 in the assay on A549, in the assay with BT-549, in the assay on CCRF-CEM, in the assay with DU-145, in the assay with EKVX and with HCC 2998 was > 10 µM (inactive) throughout. In addition, the GI50 in the assay with HCT-116 is > 10 µM (inactive); with HCT-15 it was greater than 10 µM; in the assay with HT-29, > 10 µM (inactive); with NCI-H226, > 10 µM (inactive); in the assay with NCI/ADR-RES, > 10 µM (inactive); in the assay with OVCAR-8 it was > 10 µM (inactive). Further, the GI50 in the assay on PC-3, in the assay with RPMI-8226, with SF-295, in the assay with SK-OV-3 and in the assay with SW-620 was > 10 µM (inactive) each time.

As to `COCCCNc1c2ccccc2nc2ccccc12`, the GI50 is 2.92 µM (inactive) with A549; 10.9 µM (inactive) with BT-549; 5.26 µM (inactive) with CCRF-CEM; 2.52 µM (inactive) in the assay with DU-145; 3.59 µM (inactive) in the assay with EKVX; 1.56 µM (inactive) in the assay with HCC 2998. Moreover, the GI50 is 2.59 µM (inactive) in the assay with HCT-116; 1.3 µM in the assay with HCT-15; 3.87 µM (inactive) with HL-60; 2.82 µM (inactive) in the assay on HT-29; 1.54 µM (inactive) in the assay with NCI-H460; 3.82 µM (inactive) with NCI/ADR-RES. Further, the GI50 in the assay on OVCAR-5 was 2.17 µM (inactive); in the assay on OVCAR-8, 2.68 µM (inactive); with PC-3, 2.01 µM (inactive); with SF-295, 3.61 µM (inactive); in the assay on SK-OV-3 it was 2.78 µM (inactive); with SW-620, 2.44 µM (inactive).

In the case of `N/C(=N\c1ccc(Cl)cc1)NS(=O)(=O)c1c(C(F)(F)F)cccc1C(F)(F)F`, the GI50 with A549 is 12.6 µM (inactive); with BT-549, 29.3 µM (inactive); in the assay with DU-145 it was 46.5 µM (inactive); in the assay on EKVX, 5.93 µM (inactive); with HCT-116, 10 µM (inactive); with HCT-15, 17 µM. The GI50 in the assay with HL-60 is 20 µM (inactive); in the assay with HT-29, 19.8 µM (inactive); with NCI-H226 it was 27.6 µM (inactive); in the assay with NCI-H460, 14.5 µM (inactive); with NCI/ADR-RES, 12.2 µM (inactive); in the assay on OVCAR-5 it was 20.2 µM (inactive). The GI50 in the assay with OVCAR-8 was 20.7 µM (inactive); in the assay with PC-3 it was 5.45 µM (inactive); in the assay on RPMI-8226 it was > 100 µM (inactive); with SF-295, 7.85 µM (inactive); in the assay on SK-OV-3 it was 35.2 µM (inactive); in the assay on SW-620, 33.3 µM (inactive).

Consider `O=C(/C=C/c1ccc(O)c(O)c1)O[C@H]1CCCC[C@@H]1OC(=O)/C=C/c1ccc(O)c(O)c1`, for which the GI50 with A549 was 11.7 µM (inactive); in the assay on BT-549, 17.5 µM (inactive); with CCRF-CEM, 4.8 µM (inactive); in the assay with DU-145, 13.8 µM (inactive); in the assay with EKVX, 20.6 µM (inactive); in the assay on HCC 2998, 11.2 µM (inactive). Besides, the GI50 in the assay on HCT-116 was 3.72 µM (inactive); in the assay on HCT-15, 6.73 µM; with NCI-H460, 5.14 µM (inactive); with NCI/ADR-RES it was 21.8 µM (inactive); in the assay with OVCAR-5, 15.6 µM (inactive); in the assay with OVCAR-8, 10.9 µM (inactive). Further, the GI50 is 15.6 µM (inactive) in the assay on PC-3; 9.18 µM (inactive) in the assay on RPMI-8226; 12.9 µM (inactive) with SF-295; 15.8 µM (inactive) in the assay on SK-OV-3; 3.52 µM (inactive) in the assay with SW-620.

On to `O=C1/C(=C\c2ccc(Cl)cc2Cl)Sc2scc(-c3ccc(O)c(O)c3)[n+]21`, for which the GI50 was 16.9 µM (inactive) in the assay with A549; 17.9 µM (inactive) with BT-549; 17.7 µM (inactive) in the assay on CCRF-CEM; 18.3 µM (inactive) in the assay with DU-145; 19.9 µM (inactive) in the assay on EKVX; 17 µM (inactive) with HCC 2998. Besides, the GI50 was 14.5 µM (inactive) in the assay on HCT-116; 14.8 µM with HCT-15; 8.77 µM (inactive) in the assay on HL-60; 16.7 µM (inactive) with HT-29; 15.5 µM (inactive) with NCI-H226; 16 µM (inactive) with NCI-H460. The GI50 in the assay with NCI/ADR-RES was 15.1 µM (inactive); in the assay with OVCAR-5 it was 16.4 µM (inactive); in the assay with OVCAR-8, 17.2 µM (inactive); in the assay on PC-3 it was 13.7 µM (inactive); with SF-295, 17.4 µM (inactive); in the assay with SK-OV-3, 15.8 µM (inactive). Moreover, the GI50 with SW-620 was 14 µM (inactive).

`CCOC(=O)C1=CN/C(=C(/C)C(=O)OC)SC1C(=O)OCC` (stereo unspecified): the GI50 in the assay on A549 is > 100 µM (inactive); in the assay with BT-549, > 90.6 µM (inactive); in the assay with CCRF-CEM, > 61 µM (inactive); in the assay with DU-145 it was > 100 µM (inactive); with EKVX, > 100 µM (inactive); with HCC 2998, > 100 µM (inactive). The GI50 is > 100 µM (inactive) with HCT-116; greater than 100 µM in the assay on HCT-15; > 100 µM (inactive) in the assay with HT-29; > 100 µM (inactive) with NCI-H226; > 90.4 µM (inactive) in the assay with NCI-H460; > 84.3 µM (inactive) in the assay with NCI/ADR-RES. The GI50 in the assay on OVCAR-5 is > 100 µM (inactive); with OVCAR-8, > 100 µM (inactive); in the assay with PC-3 it was 69.7 µM (inactive); with RPMI-8226, 68.9 µM (inactive); in the assay on SF-295, > 100 µM (inactive); in the assay on SK-OV-3, > 100 µM (inactive). Further, the GI50 with SW-620 is > 100 µM (inactive).

As for `Cc1nc(C(N)=S)sc1C(=O)CC(=O)C(=O)Nc1ccc(Br)cc1`, the GI50 with A549 was > 100 µM (inactive); with BT-549 it was > 100 µM (inactive); in the assay on CCRF-CEM, > 100 µM (inactive); with EKVX, > 100 µM (inactive); with HCT-116, > 100 µM (inactive); in the assay on HCT-15 it was greater than 100 µM. Besides, the GI50 in the assay on HL-60, in the assay on HT-29, with NCI-H226, in the assay with NCI-H460, with NCI/ADR-RES and with OVCAR-5 was > 100 µM (inactive) in each case. Besides, the GI50 in the assay on OVCAR-8, with PC-3, in the assay with RPMI-8226, in the assay with SF-295, with SK-OV-3 and in the assay on SW-620 was > 100 µM (inactive) in each case.

Regarding `Nc1n2nc(-c3ccccc3)sc2n[n+]1CC(=O)c1ccccc1`, the GI50 is 21.2 µM (inactive) with A549; 25.9 µM (inactive) in the assay on BT-549; 3.07 µM (inactive) in the assay on CCRF-CEM; 17.8 µM (inactive) with DU-145; 31.6 µM (inactive) with EKVX; 12.5 µM (inactive) in the assay with HCC 2998. In addition, the GI50 was 12.9 µM with HCT-15; 9.53 µM (inactive) in the assay with HT-29; 16.7 µM (inactive) with NCI-H226; 11.5 µM (inactive) in the assay with NCI-H460; 14 µM (inactive) in the assay with NCI/ADR-RES; 34.8 µM (inactive) in the assay on OVCAR-5. Further, the GI50 in the assay with OVCAR-8 was 15.1 µM (inactive); with PC-3, 11 µM (inactive); in the assay with RPMI-8226 it was 12.5 µM (inactive); in the assay with SF-295, 14 µM (inactive); in the assay on SK-OV-3, 16.7 µM (inactive); in the assay on SW-620, 4.89 µM (inactive).

On to `C[C@]12C[C@H](O)[C@H]3[C@@H](CCC4=CC(=O)CC[C@@]43C)[C@@H]1CC[C@@H]2c1csc(-c2ccccc2)n1`, for which the GI50 in the assay with A549 is 11.2 µM (inactive); in the assay on BT-549 it was > 100 µM (inactive); with DU-145, > 51.6 µM (inactive); in the assay on EKVX, 21 µM (inactive); in the assay with HCT-116 it was > 100 µM (inactive); with HCT-15 it was greater than 100 µM. Further, the GI50 in the assay on HT-29 is > 30.3 µM (inactive); in the assay with NCI-H226, > 58.1 µM (inactive); in the assay with NCI-H460, 5.85 µM (inactive); in the assay with NCI/ADR-RES, 46.6 µM (inactive); in the assay on OVCAR-5 it was > 100 µM (inactive); in the assay on OVCAR-8, 35.8 µM (inactive). Moreover, the GI50 was 3.32 µM (inactive) with PC-3; 3.56 µM (inactive) in the assay with RPMI-8226; > 100 µM (inactive) in the assay with SF-295; 27.5 µM (inactive) in the assay with SK-OV-3; 39.5 µM (inactive) with SW-620.

On to `N/N=C1/C2CN3CCN(C2)CC1(c1ccc([N+](=O)[O-])cc1)C3`, for which the GI50 with BT-549, in the assay on DU-145, with EKVX, in the assay on HCT-116, in the assay with HL-60 and in the assay on HT-29 was > 100 µM (inactive) each time. Moreover, the GI50 in the assay with NCI-H226, in the assay on NCI/ADR-RES, in the assay with OVCAR-5, in the assay on OVCAR-8, in the assay with PC-3 and in the assay with RPMI-8226 was > 100 µM (inactive) each time. For the same molecule, the GI50 with SF-295 and in the assay with SW-620 was > 100 µM (inactive) in each case.
